Data from patent US4997843A, “2,4-disubstituted derivatives of tetrahydrofuran useful for the treatment of PAF mediated illnesses” (J Uriach & Cia S.A., priority 1987, dated 1991).
Like-named read-outs stand apart in the source and are kept apart here.

Tests used:
[1] = system: platelet aggregation induced by PAF; experiment: Test 1: inhibition of platelet aggregation induced by PAF in vitro (rabbit platelet rich plasma, Born nephelometric technique); assay type: cell-based, male New Zealand albino rabbits; conditions: PAF C18 16 nM final, read-out: IC50 (concentration of the drug needed to inhibit the platelet aggregation in a 50%)
Protocol: TEST 1: INHIBITION OF PLATELET AGGREGATION INDUCED BY PAF
The platelet rich plasma (PRP) is prepared by blood centrifugation at 250 xg for 10 min. at 4° C. and it is diluted with platelet poor plasma (PPP) obtained by additional centrifugation at 300 xg for 10 min. The amount of platelets is adjusted to […].

[2] = system: hypotension induced by PAF; experiment: Test 2: inhibition of the hypotensive effect induced by PAF in normotense rats; assay type: in vivo, male Sprague Dawley rats; conditions: anesthetized rats, compound via femoral vein 3 min before PAF (0.5 mg/Kg, i.v.); for ED50: Rattus norvegicus, iv, read-out: IC50 (inhibition of the hypotension induced by PAF)
Protocol: TEST 2--INHIBITION OF THE HYPOTENSIVE EFFECT INDUCED BY PAF IN NORMOTENSE RATS
Male Sprague Dawley rats, of 180-220 g of weight, anesthetized with sodium pentobarbital (50 mg/Kg, i.p. 1 mL/100 g) have been used. In order to measure the average arterial pressure a polyethylene catheter was introduced into the carotid artery. The arterial pressure was recorded with the help of a transducer connected with a R611 Beckman polygraph. The tested compounds were administrated through the femoral vein 3 min. before the injection of PAF (0.5 mg/Kg, i.v.).

[3] = Oryctolagus cuniculus, Platelet

SMILES	IC50 [1] [nM]	IC50 (inhibition of the hypotension induced by PAF) [2]	IC50 [1, 3] [nM]	ED50 [2] [mg/kg]
CCCCCCCCCCCCCCCNC(=O)OCC1COC(COC(=O)CCCCC[n+]2ccsc2)C1 (racemic) [Compound 7, (±)-cis, trans-3-[6-oxo-6-[(4-pentadecylaminocarbonyloxymethyltetrahydrofuran-2-yl)methoxy]hexyl]thiazolium 4-methylbenzenesulfonate]			5900	3.6
CCCCCCCCCCCCCCCCCCOCC1CC(COC(=O)CCCCC[n+]2ccsc2)CO1 (racemic) [Compound 64, (±)-cis, trans-3-[6-[(2-octadecyloxymethyltetrahydrofuran-4-yl)methoxy]6-oxohexyl]thiazolium 4-methylbenzenesulfonate]			1500	1.1
CCCCCCCCCCCCCCCNC(=O)OCC1COC(COC(=O)N(Cc2cccc[n+]2CC)C(C)=O)C1 (racemic) [Compound 49, (±)-cis, trans-N-ethyl-2-[N-acetyl-[[[(4-pentadecylaminocarbonyloxymethyltetrahydrofuran-2-yl)methoxy]-carbonyl]amino]methyl]pyridinium iodide]			4.5	0.033
CCCCCCCCCCCCCCC1COC(COCCCCCC[n+]2cccc3ccccc32)C1 (racemic) [Compound 72, (±)-cis, trans-1-[6-[(4-tetradecyltetrahydrofuran-2-yl)methoxy]hexyl]quinolinium 4-methylbenzenesulfonate]			3400	3.2
CCCCCCCCCCCCCCCCCCOCC1COC(COC(=O)N(Cc2cccc[n+]2C)C(C)=O)C1 (racemic) [Compound 19, (±)-cis, trans-N-methyl-2-[N-acetyl-[[[(4-octadecyloxymethyltetrahydrofuran-2-yl)methoxy]carbonyl]amino]methyl]pyridinium iodide]			90	0.14

Continued, in another order:

IC50 [1] [nM]	IC50 (inhibition of the hypotension induced by PAF) [2]	IC50 [1, 3] [nM]	SMILES	ED50 [2] [mg/kg]
9	0.044 mg/Kg, i.v.		CCCCCCCCCCCCCCCCOCC1COC(COC(=O)N(Cc2cccc[n+]2CC)C(C)=O)C1 (racemic) [Compound 58, (±)-cis, trans-N-ethyl-2-[N-acetyl-[[[(4-hexadecyloxymethyltetrahydrofuran-2-yl)methoxy]carbonyl]amino]methyl]pyridinium chloride]	
		8600	CCCCCCCCCCCCCCCCCCOCC1COC(COC(=O)CCCCC[n+]2ccsc2)C1 (racemic) [Compound 6, (±)-cis, trans-3-[6-[(4-octadecyloxymethyltetrahydrofuran-2-yl)methoxy]-6-oxohexyl]thiazolium 4-methylbenzenesulfonate]	1.9
		1400	CCCCCCCCCCCCCCCCOCC1CC(COCCCCCC[n+]2ccsc2)CO1 (mixture of isomers) [Compound 63, (35)-cis, trans-3-[6-[(2-hexadecyloxymethyltetrahydrofuran-4-yl)methoxy]hexyl]thiazolium 4-methylbenzenesulfonate]	2.5
		48	CCCCCCCCCCCCCCCCOCC1COC(COC(=O)N(Cc2cccc[n+]2CC)C(=O)OCC)C1 (racemic) [Compound 15, (±)-cis, trans-N-ethyl-[N-ethoxycarbonyl-[[[(4-hexadecyloxymethyltetrahydrofuran-2-yl)methoxy]carbonyl]amino]methyl]pyridinium iodide]	0.035
		2000	CCCCCCCCCCCCCCCCCCOCC1CC(COCCCCCCC[n+]2ccsc2)CO1 (racemic) [Compound 61, (±)-cis, trans-3-[7-[(2-octadecyloxymethyltetrahydrofuran-4-yl)methoxy]heptyl]thiazolium chloride]	2.1
22			CCCCCCCCCCCCCCCCOCC1COC(COC(=O)N(Cc2cccc[n+]2CC)C(C)=O)C1 (racemic) [Compound 13, (±)-cis, trans-N-ethyl-2-[N-acetyl-[[[(4-hexadecyloxymethyltetrahydrofuran-2-yl)methoxy]carbonyl]amino]methyl]pyridinium iodide]	0.035
